US8278345B2, “Inhibitors of glutaminyl cyclase” (Probiodrug AG, priority 2006, dated 2012)
Read-outs that look alike come from different tables or passages of the source.

Target: hQC (Homo sapiens, UniProt Q16769)
Experiment: Inhibitor assay for glutaminyl cyclase activity (fluorometric, H-Gln-βNA / H-Gln-AMC)
Type: biochemical
Outline: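 Coupled fluorometric assay at 30 °C with pyroglutamyl aminopeptidase, in Tris/HCl pH 8.0 with EDTA, substrate H-Gln-βNA (0.2 mM; ex/em 320/410 nm) or H-Gln-AMC (ex/em 380/460 nm), initiated by QC. Screening: 4 mM inhibitor, substrate at 1 KM; Ki from progress curves fitted to competitive inhibition.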

[1] = compound from preparative synthesis, purified, read-out: IC50 hQC

hQC, sequence (Q16769 29-361): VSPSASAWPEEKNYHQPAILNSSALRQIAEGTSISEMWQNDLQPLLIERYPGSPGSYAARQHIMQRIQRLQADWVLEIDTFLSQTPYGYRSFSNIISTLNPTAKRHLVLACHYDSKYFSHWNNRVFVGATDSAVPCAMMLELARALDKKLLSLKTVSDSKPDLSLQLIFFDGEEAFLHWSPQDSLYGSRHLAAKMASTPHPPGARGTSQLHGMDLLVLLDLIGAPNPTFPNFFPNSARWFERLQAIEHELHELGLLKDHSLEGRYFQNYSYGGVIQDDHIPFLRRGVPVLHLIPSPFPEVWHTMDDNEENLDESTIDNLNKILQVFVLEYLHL

SMILES | IC50 [1] [nM] | IC50 (read-out: IC50) [nM]
O=C1C(O)=C(c2c[nH]c3ccccc23)C(c2ccccc2F)N1CCCn1ccnc1 (centres unmarked) [Compound 144, 5-(2-Fluoro-phenyl)-3-hydroxy-1-(3-imidazol-1-yl-propyl)-4-(1H-indol-3-yl)-1,5-dihydro-pyrrol-2-one] | 1040 | 40
O=C1C(O)=C(c2c[nH]c3ccccc23)C(c2ccc(O)cc2)N1CCCn1ccnc1 (centres unmarked) [Compound 145, 3-Hydroxy-5-(4-hydroxy-phenyl)-1-(3-imidazol-1-yl-propyl)-4-(1H-indol-3-yl)-1,5-dihydro-pyrrol-2-one] | – | 400
O=C1C(O)=C(c2c[nH]c3ccccc23)C(c2cccc(O)c2)N1CCCn1ccnc1 (centres unmarked) [Compound 146, 3-Hydroxy-5-(3-hydroxy-phenyl)-1-(3-imidazol-1-yl-propyl)-4-(1H-indol-3-yl)-1,5-dihydro-pyrrol-2-one] | – | 400
O=C1C(O)=C(c2ccc(O)cc2)C(c2cc(Cl)cc(Cl)c2O)N1CCCn1ccnc1 (centres unmarked) [Compound 147, 5-(3,5-Dichloro-2-hydroxy-phenyl)-3-hydroxy-4-(4-hydroxy-phenyl)-1-(3-imidazol-1-yl-propyl)-1,5-dihydro-pyrrol-2-one] | – | 40
Cc1ccc(C2C(c3ccc(O)cc3)=C(O)C(=O)N2CCCn2ccnc2)cc1 (centres unmarked) [Compound 148, 3-Hydroxy-4-(4-hydroxy-phenyl)-1-(3-imidazol-1-yl-propyl)-5-p-tolyl-1,5-dihydro-pyrrol-2-one] | 152 | 40
CCC/C=C/C1C(c2ccc(O)cc2)=C(O)C(=O)N1CCCn1ccnc1 (centres unmarked) [Compound 149, 3-Hydroxy-4-(4-hydroxy-phenyl)-1-(3-imidazol-1-yl-propyl)-5-(pent-1-enyl)-1,5-dihydro-pyrrol-2-one] | – | 1300
CCCC1C(c2ccc(O)cc2)=C(O)C(=O)N1CCCn1ccnc1 (centres unmarked) [Compound 150, 3-Hydroxy-4-(4-hydroxy-phenyl)-1-(3-imidazol-1-yl-propyl)-5-propyl-1,5-dihydro-pyrrol-2-one] | – | 40
O=C1C(O)=C(c2ccc(O)cc2)C(c2cc[nH]n2)N1CCCn1ccnc1 (centres unmarked) [Compound 151, 3-Hydroxy-4-(4-hydroxy-phenyl)-1-(3-imidazol-1-yl-propyl)-5-(1H-pyrazol-3-yl)-1,5-dihydro-pyrrol-2-one] | – | 40
O=C1C(O)=C(c2ccc(O)cc2)C(C(O)CO)N1CCCn1ccnc1 (centres unmarked) [Compound 152, 5-(1,2-Dihydroxy-ethyl)-3-hydroxy-4-(4-hydroxy-phenyl)-1-(3-imidazol-1-yl-propyl)-1,5-dihydro-pyrrol-2-one] | – | 400
CC(C)/C=C/C1C(c2ccc(O)cc2)=C(O)C(=O)N1CCCn1ccnc1 (centres unmarked) [Compound 153, 3-Hydroxy-4-(4-hydroxy-phenyl)-1-(3-imidazol-1-yl-propyl)-5-(3-methyl-but-1-enyl)-1,5-dihydro-pyrrol-2-one] | – | 2200
Cc1ccc(C2C(c3ccc(O)cc3)=C(O)C(=O)N2CCCn2ccnc2)o1 (centres unmarked) [Compound 154, 3-Hydroxy-4-(4-hydroxy-phenyl)-1-(3-imidazol-1-yl-propyl)-5-(5-methyl-furan-2-yl)-1,5-dihydro-pyrrol-2-one] | – | 40
O=C1C(O)=C(c2ccc(O)cc2)C(c2ccc3[nH]ccc3c2)N1CCCn1ccnc1 (centres unmarked) [Compound 155, 3-Hydroxy-4-(4-hydroxy-phenyl)-1-(3-imidazol-1-yl-propyl)-5-(1H-indol-5-yl)-1,5-dihydro-pyrrol-2-one] | 370 | 40
COc1ccc(C2C(c3ccc(O)cc3)=C(O)C(=O)N2CCCn2ccnc2)cc1 (centres unmarked) [Compound 156, 3-Hydroxy-4-(4-hydroxy-phenyl)-1-(3-imidazol-1-yl-propyl)-5-(4-methoxy-phenyl)-1,5-dihydro-pyrrol-2-one] | 88 | 40
O=C1C(O)=C(c2ccc(O)cc2)C(c2ccccc2O)N1CCCn1ccnc1 (centres unmarked) [Compound 157, 3-Hydroxy-5-(2-hydroxy-phenyl)-4-(4-hydroxy-phenyl)-1-(3-imidazol-1-yl-propyl)-1,5-dihydro-pyrrol-2-one] | – | 40
Cc1ccc(C2C(c3ccc(O)cc3)=C(O)C(=O)N2CCCn2ccnc2)cc1C (centres unmarked) [Compound 158, 5-(3,4-Dimethyl-phenyl)-3-hydroxy-4-(4-hydroxy-phenyl)-1-(3-imidazol-1-yl-propyl)-1,5-dihydro-pyrrol-2-one] | 214 | 40
CCCCCC1C(c2ccc(O)cc2)=C(O)C(=O)N1CCCn1ccnc1 (centres unmarked) [Compound 159, 3-Hydroxy-4-(4-hydroxy-phenyl)-1-(3-imidazol-1-yl-propyl)-5-pentyl-1,5-dihydro-pyrrol-2-one] | – | 40
CC1C(c2ccc(O)cc2)=C(O)C(=O)N1CCCn1ccnc1 (centres unmarked) [Compound 160, 3-Hydroxy-4-(4-hydroxy-phenyl)-1-(3-imidazol-1-yl-propyl)-5-methyl-1,5-dihydro-pyrrol-2-one] | – | 400
O=C1C(O)=C(c2ccc(O)cc2)C(c2ccc(CO)o2)N1CCCn1ccnc1 (centres unmarked) [Compound 161, 3-Hydroxy-5-(5-hydroxymethyl-furan-2-yl)-4-(4-hydroxy-phenyl)-1-(3-imidazol-1-yl-propyl)-1,5-dihydro-pyrrol-2-one] | – | 400
O=C1C(O)=C(c2ccc(O)cc2)C(c2ccccc2)N1CCCn1ccnc1 (centres unmarked) [Compound 162, 3-Hydroxy-4-(4-hydroxy-phenyl)-1-(3-imidazol-1-yl-propyl)-5-phenyl-1,5-dihydro-pyrrol-2-one] | – | 40
O=C1C(O)=C(c2ccc(O)cc2)C(C2CCC=CO2)N1CCCn1ccnc1 (centres unmarked) [Compound 163, 5-(3,4-Dihydro-2H-pyran-2-yl)-3-hydroxy-4-(4-hydroxy-phenyl)-1-(3-imidazol-1-yl-propyl)-1,5-dihydro-pyrrol-2-one] | 559 | 40
O=C1C(O)=C(c2ccc(O)cc2)C(C2=CCCCC2)N1CCCn1ccnc1 (centres unmarked) [Compound 164, 5-Cyclohex-1-enyl-3-hydroxy-4-(4-hydroxy-phenyl)-1-(3-imidazol-1-yl-propyl)-1,5-dihydro-pyrrol-2-one] | – | 1300
Cc1ccc2c(C3C(c4ccc(O)cc4)=C(O)C(=O)N3CCCn3ccnc3)c[nH]c2c1 (centres unmarked) [Compound 165, 3-Hydroxy-4-(4-hydroxy-phenyl)-1-(3-imidazol-1-yl-propyl)-5-(6-methyl-1H-indol-3-yl)-1,5-dihydro-pyrrol-2-one] | – | 40
O=C1C(O)=C(c2ccc(O)cc2)C(C(F)(F)F)N1CCCn1ccnc1 (centres unmarked) [Compound 166, 3-Hydroxy-4-(4-hydroxy-phenyl)-1-(3-imidazol-1-yl-propyl)-5-trifluoromethyl-1,5-dihydro-pyrrol-2-one] | – | 400
O=C1C(O)=C(c2ccc(O)cc2)C(c2c[nH]c3ccccc23)N1CCCn1ccnc1 (centres unmarked) [Compound 167, 3-Hydroxy-4-(4-hydroxy-phenyl)-1-(3-imidazol-1-yl-propyl)-5-(1H-indol-3-yl)-1,5-dihydro-pyrrol-2-one] | – | 40
O=C1C(O)=C(c2ccc(O)cc2)C(c2ncc[nH]2)N1CCCn1ccnc1 (centres unmarked) [Compound 168, 3-Hydroxy-4-(4-hydroxy-phenyl)-5-(1H-imidazol-2-yl)-1-(3-imidazol-1-yl-propyl)-1,5-dihydro-pyrrol-2-one] | – | 2200
O=C1C(O)=C(c2ccc(O)cc2)C(Cc2ccccc2)N1CCCn1ccnc1 (centres unmarked) [Compound 169, 5-Benzyl-3-hydroxy-4-(4-hydroxy-phenyl)-1-(3-imidazol-1-yl-propyl)-1,5-dihydro-pyrrol-2-one] | – | 40
